Measured values as given in US8258114B2, “Modulation of glucose-6-phosphatase translocase expression” (Isis Pharmaceuticals, Inc., priority 2004, dated 2012).
Where two headings read alike, the source gives them in different places. Each block holds one molecule with its values, some of them ahead of it. Oligonucleotides are written 5' to 3', each unit as a sugar letter and its base; * is a phosphorothioate linkage, no mark a phosphodiester; rarer units and linkages stand in square brackets, end groups in braces. Plain capitals give the bases only. e = 2'-O-(2-methoxyethyl) (MOE); [5mC] = 5-methylcytosine; d = 2'-deoxy (DNA)

Columns and labels:
[1] = Body weights of ZDF rats (Table 18); settings: for Body weight: rosiglitazone alone 3 mg/kg daily
[2] = tested on: rat glucose-6-phosphatase translocase mRNA; assay: Reduction of glucose-6-phosphatase translocase mRNA in liver or kidney of ZDF rats (Table 15); type: in vivo; settings: Rattus norvegicus, rosiglitazone alone 3 mg/kg daily in food
Experimental: Saline-injected animals served as a control treatment group. At the end of the treatment period, animals were sacrificed and target reduction in liver and kidney were measured by real-time PCR as described in other examples herein. […] For example, the following primer-probe set was designed to hybridize to rat glucose-6-phosphatase translocase sequences cited in Table 1: Forward primer: [NT] (incorporated herein as SEQ ID NO: 339) Reverse primer: [NT] (incorporated herein as SEQ ID NO: 340) PCR probe: […] (incorporated herein as SEQ ID NO: 341), where FAM is the fluorescent dye and TAMRA is the quencher dye.

[3] = Plasma lipids (cholesterol, triglycerides, free fatty acids) in ZDF rats (Table 21); type: in vivo, rat
Experimental: (§1) Saline-injected animals served as a control treatment group.
To further assess the physiological effects resulting from inhibition of target mRNA with antisense oligonucleotide alone or in combination with rosiglitazone, the rats were evaluated throughout the treatment period for plasma free fatty acids, plasma cholesterol, and plasma triglyceride levels. Free fatty acids, triglycerides and cholesterol were measured by routine clinical analyzer instruments (e.g. Olympus Clinical Analyzer, Melville, N.Y.). Glucose levels were measured using a glucose analyzer, for example a YSI glucose analyzer (YSI Scientific, Yellow Springs, Ohio).

[4] = Body fat percentage by MRI in Zucker rats (Table 19); settings: for % Fat: MRI, rosiglitazone alone 3 mg/kg daily
Experimental: (§3) Male Zucker fa/fa rats, about 17 to 18 weeks of age, purchased from Charles River Laboratories (Wilmington, Mass.), are maintained on a normal rodent diet. Animals are placed into treatment groups of 8 animals each. […] Another treatment group received the food-administered daily doses of 3 mg/kg of rosiglitazone alone. Saline-injected animals served as a control treatment group.
Also monitored throughout the study was body composition. Baseline body composition was measured by MRI prior to the start of treatment (BL). Body composition was also measured during week 3 (Wk 3) and during week 5 (Wk 5) of treatment.

[5] = tested on: aged Zucker fa/fa rats; assay: Oral glucose tolerance test in ZDF rats (Table 17); type: in vivo, rat; settings: week 3, rosiglitazone alone 3 mg/kg daily
Experimental: as §1
To further evaluate the effects of ISIS 366228 alone or in combination with rosiglitazone, oral glucose tolerance tests were performed during the third week of treatment. To provide a baseline glucose level, fasted blood glucose levels were measured before the challenge. Glucose was administered by oral gavage via an 18 gauge gavage needle at a dose of 1 g/kg. Plasma glucose levels were measured for 15, 30, 60, 90, and 120 minutes post-challenge, using a glucose analyzer (for example, an Ascencia Glucometer Elite XL, Bayer, Tarrytown, N.Y.).

[6] = Tissue weights (kidney, spleen, liver, fat pad) of ZDF rats (Table 20); settings: end of study, rosiglitazone alone
Experimental: Male Zucker fa/fa rats, about 17 to 18 weeks of age, purchased from Charles River Laboratories (Wilmington, Mass.), are maintained on a normal rodent diet. Animals are placed into treatment groups of 8 animals each. One treatment group was dosed subcutaneously twice weekly with 12.5 mg/kg of ISIS 366228 (SEQ ID NO: 203). Another treatment group was dosed twice weekly with 25 mg/kg of ISIS 366228. Other treatment groups were dosed with 12.5 mg/kg or 25 mg/kg ISIS 366228 twice weekly in combination with daily 3 mg/kg doses of rosiglitazone (Rosi) administered in powdered food. Another treatment group received the food-administered daily doses of 3 mg/kg of rosiglitazone alone. Saline-injected animals served as a control treatment group.
Tissue weights were also determined at the end of the study.

[7] = Plasma glucose levels of ZDF rats, alone or in combination with rosiglitazone (Table 16); type: in vivo, rat; settings: rosiglitazone alone 3 mg/kg daily
Experimental: as §1
Plasma glucose levels were evaluated at the beginning of the study (Wk 0), during the first week of treatment (Wk 1), during the third week of treatment (Wk 3), and during the fifth week of treatment (Wk 5).

[8] = Liver transaminases ALT and AST in ZDF rats; settings: week 5
Experimental: as §3
The liver transaminases, ALT and AST, were measured throughout the study.

[9] = tested on: catalytic subunit of glucose-6-phosphatase (G6PC) mRNA; assay: Reduction of catalytic subunit of glucose-6-phosphatase (G6PC) mRNA in liver or kidney of ZDF rats (Table 15); type: in vivo, rat; settings: Rattus norvegicus, rosiglitazone alone 3 mg/kg daily in food
Experimental: as §1
At the end of the treatment period, animals were sacrificed and target reduction in liver and kidney were measured by real-time PCR as described in other examples herein. Also measured were reductions in the catalytic subunit of glucose-6-phosphatase (G6PC) using a primer-probe set designed to hybridize to that mRNA. For example, the following primer-probe set was designed to hybridize to rat glucose-6-phosphatase translocase sequences cited in Table 1:
Results for each treatment group are shown in Table 15 as the average percent reduction in glucose-6-phosphatase translocase levels or in G6PC as compared to saline treated control.

[10] = tested on: human glucose-6-phosphatase translocase mRNA; assay: Antisense inhibition of human glucose-6-phosphatase translocase mRNA in HepG2 cells (Table 11); type: cell-based; design: concentration or dose not given beside the values; settings: LIPOFECTIN, mRNA by real-time PCR
In short: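 HepG2 cells at 65-75% confluency transfected with 2′-MOE gapmer oligonucleotides using LIPOFECTIN (2.5 or 3 μg/mL per 100 nM oligo) for 4-7 h and harvested 16-24 h later. Target mRNA measured by RT real-time PCR and normalized to GAPDH or RiboGreen total RNA.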

[11] = Body weight and tissue weights of normal Sprague-Dawley rats (Table 13); settings: for Spleen weight / Fat weight / Kidney weight / Liver weight: end of study
Experimental: For three weeks, male Sprague-Dawley rats were injected twice-weekly with doses of 12.5 mg/kg, 25 mg/kg, or 50 mg/kg of ISIS 145760, ISIS 359543, or ISIS 366228. Each treatment group was comprised of 4 animals. Animals which received twice weekly injections of saline served as controls.
Body weight was monitored throughout the study period. […] Tissue weights were also measured at the end of the study.

[12] = Plasma glucose, cholesterol and triglycerides in normal Sprague-Dawley rats (Table 14); type: in vivo, rat; design: plasma GLUCOSE WK 0 / plasma GLUCOSE WK 3: unit not given beside the values
Experimental: (§2) Each treatment group was comprised of 4 animals.
To further assess the physiological effects resulting from inhibition of target mRNA, the rats were evaluated at the beginning (Wk 0) and at the end (Wk 3) of the treatment period for plasma glucose, plasma cholesterol, and plasma triglyceride levels. Triglycerides and cholesterol were measured by routine clinical analyzer instruments (e.g. Olympus Clinical Analyzer, Melville, N.Y.). Glucose levels were measured using a glucose analyzer, for example a YSI glucose analyzer (YSI Scientific, Yellow Springs, Ohio). Results are presented in Table 14 as the average level of plasma glucose, plasma cholesterol (CHOL), or plasma triglycerides (TRIG) measured per treatment group.

[13] = tested on: mouse glucose-6-phosphatase translocase mRNA; assay: Antisense inhibition of mouse glucose-6-phosphatase translocase mRNA in primary mouse hepatocytes, 150 nM, LIPOFECTIN (Table 22); type: cell-based; settings: real-time PCR
In short: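 Primary CD-1 mouse hepatocytes at 65-75% confluency transfected ~4-7 h at 37° C with 150 nM 5-10-5 2′-MOE gapmer phosphorothioate oligonucleotides plus LIPOFECTIN (2.5 or 3 μg/mL per 100 nM). Harvested 16-24 h post-treatment; mRNA by real-time RT-PCR, normalized to GAPDH or RiboGreen total RNA, expressed as percent inhibition.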

[14] = tested on: glucose-6-phosphatase translocase mRNA; assay: Target reduction in liver: rat dose-response study (Table 12); type: in vivo; settings: Sprague-Dawley rats; for % Inhibition, target reduction in liver: three weeks
Experimental: as §2
At the end of the treatment period, animals were sacrificed and target reduction in liver was measured by real-time PCR as described in other examples herein. Results are shown in Table 12 as the average percent reduction in glucose-6-phosphatase translocase levels as compared to saline treated control.

body fat percentage (in words) [4]: resulted in increased body fat
% Fat ([4]; BL (baseline)): 24%
% Fat ([4]; Wk 3): 32%
% Fat ([4]; Wk 5): 36%
Fat pad weight [6]: 9 grams
Kidney weight [6]: 4 grams
Liver weight [6]: 21 grams
Spleen weight [6]: 0.6 grams
Molecule: CN(CCOc1ccc(CC2SC(=O)NC2=O)cc1)c1ccccn1 (stereo not drawn) [Rosiglitazone, rosiglitazone, reference compound]
body weight (in words) [1]: associated with increased body weight
Body weight ([1]; Wk 0): 404 g
Body weight ([1]; Wk 1): 422 g
Body weight ([1]; Wk 2): 444 g
Body weight ([1]; Wk 3): 453 g
Body weight ([1]; Wk 4): 465 g
inhibition at 3 mg/kg ([2]; read-out: % Inhibition of glucose-6-phosphatase translocase, Kidney): 0%
inhibition at 3 mg/kg ([2]; read-out: % Inhibition of glucose-6-phosphatase translocase, Liver): 46%
plasma cholesterol (CHOL) ([3]; Wk 0, rosiglitazone alone): 202 mg/dL
plasma triglycerides (TRIG) ([3]; Wk 0, rosiglitazone alone): 478 mg/dL
plasma cholesterol (CHOL) ([3]; Wk 1, rosiglitazone alone): 217 mg/dL
plasma triglycerides (TRIG) ([3]; Wk 1, rosiglitazone alone): 300 mg/dL
plasma cholesterol (CHOL) ([3]; Wk 3, rosiglitazone alone): 220 mg/dL
plasma triglycerides (TRIG) ([3]; Wk 3, rosiglitazone alone): 327 mg/dL
plasma cholesterol (CHOL) ([3]; Wk 5, rosiglitazone alone): 234 mg/dL
plasma triglycerides (TRIG) ([3]; Wk 5, rosiglitazone alone): 384 mg/dL
plasma glucose, OGTT ([5]; 0 min (fasted)): 251 mg/dL
plasma glucose, OGTT ([5]; 15 min): 429 mg/dL
plasma glucose, OGTT ([5]; 30 min): 490 mg/dL
plasma glucose, OGTT ([5]; 60 min): 417 mg/dL
plasma glucose, OGTT ([5]; 90 min): 409 mg/dL
plasma glucose, OGTT ([5]; 120 min): 384 mg/dL
Plasma glucose ([7]; Wk 0): 570 mg/dL
Plasma glucose ([7]; Wk 1): 462 mg/dL
Plasma glucose ([7]; Wk 3): 487 mg/dL
Plasma glucose ([7]; Wk 5): 498 mg/dL
liver transaminases ALT and AST (in words) [8]: reductions in levels of these indicators of liver function
inhibition at 3 mg/kg ([9]; read-out: % Inhibition of G6PC, Kidney): 5%
inhibition at 3 mg/kg ([9]; read-out: % Inhibition of G6PC, Liver): 63%

Molecule: CGGCCCATCTTGGTGCGGAT (e[5mC]*eG*eG*e[5mC]*e[5mC]*d[5mC]*dA*dT*d[5mC]*dT*dT*dG*dG*dT*dG*e[5mC]*eG*eG*eA*eT; antisense) [ISIS 145706]
% Inhib [10]: 96%
Spleen weight ([11]; 12.5 mg/kg twice weekly, saline 0.7): 0.7 grams
Fat weight ([11]; 12.5 mg/kg twice weekly, saline 1.8): 1.5 grams
Kidney weight ([11]; 12.5 mg/kg twice weekly, saline 3): 3 grams
Liver weight ([11]; 12.5 mg/kg twice weekly, saline 15): 15 grams
Body weight ([11]; 12.5 mg/kg twice weekly, week 3, saline 290): 289 grams
Fat weight ([11]; 25 mg/kg twice weekly): 1.3 grams
Kidney weight ([11]; 25 mg/kg twice weekly): 3 grams
Liver weight ([11]; 25 mg/kg twice weekly): 15 grams
Spleen weight ([11]; 25 mg/kg twice weekly): 1.0 grams
Body weight ([11]; 25 mg/kg twice weekly, week 3): 300 grams
Fat weight ([11]; 50 mg/kg twice weekly): 1.2 grams
Kidney weight ([11]; 50 mg/kg twice weekly): 3 grams
Liver weight ([11]; 50 mg/kg twice weekly): 16 grams
Spleen weight ([11]; 50 mg/kg twice weekly): 0.9 grams
Body weight ([11]; 50 mg/kg twice weekly, week 3): 290 grams
Increases in body weights (in words) ([11]; 12.5 to 50 mg/kg, throughout the study): comparable to the increases in body weight observed for saline-treated control animals
plasma cholesterol (CHOL) WK 3 ([12]; 12.5 mg/kg twice weekly, saline 58): 51
plasma triglycerides (TRIG) WK 0 ([12]; 12.5 mg/kg twice weekly, saline 69): 54
plasma cholesterol (CHOL) WK 0 ([12]; 12.5 mg/kg twice weekly, saline 74): 69
plasma GLUCOSE WK 0 ([12]; 12.5 mg/kg twice weekly, saline 135): 149
plasma GLUCOSE WK 3 ([12]; 12.5 mg/kg twice weekly, saline 139): 151
plasma triglycerides (TRIG) WK 3 ([12]; 12.5 mg/kg twice weekly, saline 140): 61
plasma GLUCOSE WK 0 ([12]; 25 mg/kg twice weekly): 149
plasma GLUCOSE WK 3 ([12]; 25 mg/kg twice weekly): 148
plasma cholesterol (CHOL) WK 0 ([12]; 25 mg/kg twice weekly): 80
plasma cholesterol (CHOL) WK 3 ([12]; 25 mg/kg twice weekly): 59
plasma triglycerides (TRIG) WK 0 ([12]; 25 mg/kg twice weekly): 45
plasma triglycerides (TRIG) WK 3 ([12]; 25 mg/kg twice weekly): 58
plasma GLUCOSE WK 0 ([12]; 50 mg/kg twice weekly): 148
plasma GLUCOSE WK 3 ([12]; 50 mg/kg twice weekly): 151
plasma cholesterol (CHOL) WK 0 ([12]; 50 mg/kg twice weekly): 79
plasma cholesterol (CHOL) WK 3 ([12]; 50 mg/kg twice weekly): 57
plasma triglycerides (TRIG) WK 0 ([12]; 50 mg/kg twice weekly): 66
plasma triglycerides (TRIG) WK 3 ([12]; 50 mg/kg twice weekly): 52
plasma triglycerides (in words) ([12]; 12.5 to 50 mg/kg, three weeks): prevented the increases in triglycerides observed in saline-treated animals
% Inhib of mouse glucose-6-phosphatase translocase mRNA levels [13]: 54%
% Inhibition, target reduction in liver ([14]; 12.5 mg/kg twice weekly): 12%
% Inhibition, target reduction in liver ([14]; 25 mg/kg twice weekly): 56%
% Inhibition, target reduction in liver ([14]; 50 mg/kg twice weekly): 77%
target mRNA levels in rat liver (in words) ([14]; 12.5 to 50 mg/kg): effective in reducing target mRNA levels in rat liver in a dose-dependent manner
